Assay results: patent US20250144067A1, “PERSONALIZED STARVATION THERAPY FOR CANCER” (Faeth Therapeutics, Inc., priority 2021, published 2025)
Structures can show the parent of a compound that is named as a salt.

Legend:
[1] = test system: NCI-H292 lung cancer cells; experiment: FDA drug screening, complete media vs cholesterol-free media with simvastatin (TABLE 2); assay type: cell-based, human; details: for Cholesterol-free media + simvastatin (0.04 μM) / Complete Media: NCI-H292 cells
[2] = test system: NCI-H292 lung cancer cells; experiment: FDA drug screening, complete media vs cholesterol-free media without statin (TABLE 1); assay type: cell-based, human
[3] = drug in cholesterol-free media with simvastatin 0.04 μM
[4] = complete media vs cholesterol-free media + simvastatin (0.04 μM), >0 enhanced anti-cancer activity, about 0 neutral, <0 antagonist
[5] = Complete minus Cholesterol-free, >0 enhanced anti-cancer activity, about 0 neutral, <0 antagonist
[6] = NCI-H292 cells, cholesterol-free media without statin, FDA drug library screen
[7] = NCI-H292 cells, complete media, FDA drug library screen
[8] = FDA drug library screen, cholesterol-free media with simvastatin 0.04 μM
[9] = FDA drug library screen, complete media
[10] = Complete minus Cholesterol-free, greater than 0 enhanced anti-cancer activity, about 0 neutral, below 0 antagonist
[11] = NCI-H292 cells, FDA drug library screen, cholesterol-free media without statin
[12] = NCI-H292 cells, FDA drug library screen, complete media
[13] = complete media vs cholesterol-free media + simvastatin (0.04 μM), […]
[14] = complete vs cholesterol-free media, […]
[15] = FDA library drug in cholesterol-free media with simvastatin 0.04 μM
[16] = FDA library drug in complete media
[17] = NCI-H292 cells, cholesterol-free media without statin
[18] = complete media minus cholesterol-free media + simvastatin, >0 enhanced anti-cancer activity, about 0 neutral, <0 antagonist
[19] = Complete minus Cholesterol-free, greater than 0 enhanced anti-cancer activity, about 0 neutral, below 0 antagonists
[20] = NCI-H292 cells in cholesterol-free media without statin
[21] = NCI-H292 cells in complete media
[22] = cholesterol-free media with simvastatin 0.04 μM, FDA drug library screen (TABLE 2)
[23] = complete media, FDA drug library screen (TABLE 2)
[24] = complete media minus cholesterol-free media + simvastatin (0.04 μM), >0 enhanced anti-cancer activity, about 0 neutral, <0 antagonist

For `COc1c(C)c2c(c(O)c1C/C=C(\C)CCC(=O)O)C(=O)OC2` [Mycophenolic acid], the “Cholesterol-free media + simvastatin (0.04 μM)” value [1, 3] was 0.743, the “Complete Media” value ([1]; drug in complete media) was 0.5199 and the Difference [1, 4] was −0.22. For the same compound, the Difference [2, 5] was −0.06, the Cholesterol-free [2, 6] was 0.346 and the Complete [2, 7] was 0.2837.
In the case of `CC(=O)N[C@@H](Cc1ccc(O)cc1)C(=O)O` [N-Acetyl-L-tyrosine], the “Cholesterol-free media + simvastatin (0.04 μM)” value [1, 8] is reported as 1.348, the “Complete Media” value [1, 9] is reported as 1.218 and the Difference [1, 4] is reported as −0.13. The Difference [2, 10] was −0.16, the Cholesterol-free [2, 11] was 1.221 and the Complete [2, 12] was 1.059.
For `CCN(CC)CCNC(=O)c1ccc(NC(C)=O)cc1` [N-Acetylprocainamide], the “Cholesterol-free media + simvastatin (0.04 μM)” value [1, 8] was 0.9234, the “Complete Media” value [1, 9] was 0.8479 and the Difference [1, 13] was −0.08. The Cholesterol-free [2, 6] was 1.279, the Complete [2, 7] was 1.656 and the Difference [2, 14] was 0.38.
With `COc1ccc2cc(CCC(C)=O)ccc2c1` [Nabumetone] the “Cholesterol-free media + simvastatin (0.04 μM)” value [1, 15] was 1.525, the “Complete Media” value [1, 16] was 1.112 and the Difference [1, 4] was −0.41. It also gave a Difference [2, 10] of −0.18, a Cholesterol-free [2, 11] of 1.034 and a Complete [2, 12] of 0.8533.
In the case of `CC1CCc2c(N3CCC(O)CC3)c(F)cc3c(=O)c(C(=O)O)cn1c23` (centres unmarked) [Nadifloxacin], the “Cholesterol-free media + simvastatin (0.04 μM)” value [1, 15] is reported as 1.859, the “Complete Media” value [1, 16] is reported as 1.054 and the Difference [1, 4] is reported as −0.80. The Difference [2, 5] was −0.03, the Cholesterol-free [2, 6] was 0.9891 and the Complete [2, 7] was 0.9558.
For `CC(C)(C)NCC(O)COc1cccc2c1CC(O)C(O)C2` (centres unmarked) [Nadolol], the “Cholesterol-free media + simvastatin (0.04 μM)” value [1, 15] was 1.308, the “Complete Media” value [1, 16] was 1.014 and the Difference [1, 4] was −0.29. It also gave a Difference [2, 5] of −0.30, a Cholesterol-free [2, 17] of 1.37 and a Complete ([2]; NCI-H292 cells, complete media) of 1.069.
With `CCOc1ccc2ccccc2c1C(=O)N[C@@H]1C(=O)N2[C@@H]1SC(C)(C)[C@@H]2C(=O)O` [Nafcillin (sodium monohydrate)] the “Cholesterol-free media + simvastatin (0.04 μM)” value [1, 8] was 0.8693, the Difference [1, 18] was 0.30 and the Difference [2, 19] was −1.00. For the same compound, the Cholesterol-free [2, 20] was 1.957 and the Complete [2, 21] was 0.9538.
For `CCN(CC)CCOC(=O)C(Cc1cccc2ccccc12)CC1CCCO1.O=C(O)C(=O)O` (centres unmarked) [Naftidrofuryl (oxalate)], the “Cholesterol-free media + simvastatin (0.04 μM)” value [1, 22] was 1.139, the “Complete Media” value [1, 23] was 1.076 and the Difference [1, 24] was −0.06. The Difference [2, 5] was −0.04, the Cholesterol-free [2, 6] was 1.015 and the Complete [2, 7] was 0.9733.
With `CN(C/C=C/c1ccccc1)Cc1cccc2ccccc12` [Naftifine (hydrochloride)] the “Cholesterol-free media + simvastatin (0.04 μM)” value [1, 8] was 0.9055, the “Complete Media” value [1, 9] was 1.136 and the Difference [1, 18] was 0.23. For the same compound, the Difference [2, 19] was −0.88, the Cholesterol-free [2, 20] was 1.921 and the Complete [2, 21] was 1.037.
In the case of `COc1ccccc1N1CCN(CC(O)COc2cccc3ccccc23)CC1` (centres unmarked) [Naftopidil], the “Cholesterol-free media + simvastatin (0.04 μM)” value ([1]; cholesterol-free media with simvastatin 0.04 μM, cell growth value in FDA drug screen) is reported as 0.6892, the “Complete Media” value ([1]; complete media, cell growth value in FDA drug screen) is reported as 0.763 and the Difference [1, 18] is reported as 0.07. The Difference [2, 19] was −0.98, the Cholesterol-free [2, 20] was 1.94 and the Complete [2, 21] was 0.9592.
For `CN(C(=O)/C=C/c1ccoc1)[C@@H]1CC[C@@]2(O)[C@H]3Cc4ccc(O)c5c4[C@@]2(CCN3CC2CC2)[C@H]1O5` [Nalfurafine (hydrochloride)], the “Cholesterol-free media + simvastatin (0.04 μM)” value [1, 8] was 1.083, the “Complete Media” value [1, 9] was 0.926 and the Difference [1, 13] was −0.16. For the same compound, the Difference ([2]; Complete minus Cholesterol-free, […]) was −0.29, the Cholesterol-free [2, 17] was 1.222 and the Complete ([2]; NCI-H292 cells, complete media) was 0.931.
For `CCn1cc(C(=O)O)c(=O)c2ccc(C)nc21` [Nalidixic acid], the “Cholesterol-free media + simvastatin (0.04 μM)” value [1, 3] was 1.203, the “Complete Media” value ([1]; drug in complete media) was 0.9667 and the Difference [1, 13] was −0.24. For the same compound, the Cholesterol-free [2, 17] was 1.332, the Complete ([2]; NCI-H292 cells, complete media) was 0.9692 and the Difference [2, 14] was −0.36.
With `c1ccc2c(CC3=NCCN3)cccc2c1` [Naphazoline (hydrochloride)] the “Cholesterol-free media + simvastatin (0.04 μM)” value [1, 22] was 0.7495, the “Complete Media” value [1, 23] was 0.6802 and the Difference [1, 24] was −0.07. The Difference [2, 5] was −0.26, the Cholesterol-free [2, 17] was 1.189 and the Complete ([2]; NCI-H292 cells, complete media) was 0.9279.
For `COc1ccc2cc([C@H](C)C(=O)O)ccc2c1` [Naproxen (sodium)], the “Cholesterol-free media + simvastatin (0.04 μM)” value [1, 8] was 1.198, the “Complete Media” value [1, 9] was 1.058 and the Difference [1, 4] was −0.14. The Cholesterol-free [2, 17] was 1.162, the Complete ([2]; NCI-H292 cells, complete media) was 0.8469 and the Difference ([2]; complete vs cholesterol-free media, greater than 0 enhanced anti-cancer activity, about 0 neutral, below 0 antagonists) was −0.32.
